Experimental data from US11617758B2, “Emulsion formulations” (Marius Pharmaceuticals LLC, priority 2013, dated 2023).
In brackets after ≈: the same amount, converted by molar mass. Where two headings read alike, the source gives them in different places.

Columns and labels:
[1] = TU solubility in various solubilizers; details: testosterone undecanoate dissolved in the named vehicle
[2] = system: absorption of cholesterol; details: 1 g ingested, meal containing 500 mg of cholesterol; cited from earlier work
[3] = cited from earlier work
plasma lipids = details: interesterified with margarine, mild hypercholesteremia; cited from earlier work
[4] = 200 mg oral twice daily, cited from earlier work
[5] = cited from earlier work; remark: listed apart in the source

Compound | TU Solubility (mg/g) at 37 C. [1] | other results
CCCCC/C=C\C/C=C\CCCCCCCC(=O)O [Linoleic acid] | 391 mg/g | –
CCOCCOCCO [Transcutol HP, diethylene glycol monoethyl ether] | 180 mg/g | –
CN1CCCC1=O [N-methyl pyrolidone] | >500 mg/g | –
CC[C@H](CC[C@@H](C)[C@H]1CC[C@H]2[C@@H]3CC=C4C[C@@H](O)CC[C@]4(C)[C@H]3CC[C@]12C)C(C)C [ß-sitosterol] | – | reduction of absorption of cholesterol [2]: 42%
CCCCCCCCCCCCCC(=O)OC(C)C [Crodamol IPM (isopropyl myristate), isopropyl myristate] | 295 mg/g | –
CCCCCC[C@@H](O)C/C=C\CCCCCCCC(=O)O [Ricinoleic acid] | 244 mg/g | –
CCCCCCCCCCC(=O)O[C@H]1CC[C@H]2[C@@H]3CCC4=CC(=O)CC[C@]4(C)[C@H]3CC[C@]12C [TU, testosterone undecanoate] | – | oral bioavailability ([3]; dosed with normal fat meal (30% calories from fat), solution of TU in oleic acid): about 7%; fraction absorbed via the intestinal lymphatic system ([3]; in vivo): More than 80%
CCCCC/C=C\C/C=C\CCCCCCCC(=O)OCC [Ethyl linoleate] | 230 mg/g | –
CCCCCCCC/C=C\CCCCCCCC(=O)OCC(COC(=O)CCCCCCC/C=C\CCCCCCCC)OC(=O)CCCCCCC/C=C\CCCCCCCC [Glyceryl trioleate (Capmul GTO), Glyceryl trioleate] | 154 mg/g | –
CC[C@H](CC[C@@H](C)[C@H]1CC[C@H]2[C@@H]3CC[C@H]4C[C@@H](O)CC[C@]4(C)[C@H]3CC[C@]12C)C(C)C [sitostanol] | – | mean 1-year reduction in plasma cholesterol (plasma lipids): 10.2%
CC/C=C\C/C=C\C/C=C\CCCCCCCC(=O)O [Linolenic acid] | 162 mg/g | –
C[C@]12CC[C@H]3[C@@H](CCC4=CC(=O)CC[C@@]43C)[C@@H]1CC[C@@H]2O [testosterone] | – | oral bioavailability ([3]; dosed as a suspension in oil): 1%; circulating fraction bound to sex hormone binding globulin and albumin ([3]; in vivo): > 98%; plasma half-life ([3]; in vivo): 10 to 30 min
CCCCCCCC/C=C\CCCCCCCC(=O)OCC [Crodamol EO (ethyl oleate), ethyl oleate] | 221 mg/g | –
Cc1c(C)c2c(c(C)c1O)CCC(C)(CCCC(C)CCCC(C)CCCC(C)C)O2 (racemic) [dl-alpha-tocopherol] | 527 mg/g | –
C[C@]12CC[C@H]3[C@@H](CCC4=CC(=O)CC[C@@]43C)[C@@H]1CC[C@@H]2O [micronized testosterone, testosterone] | – | time of total serum testosterone within the normal range ([4]; two doses): greater than 12 hours; time at desired level of serum testosterone for each peak [4]: about 4 hours
CCCCCCCCCCCCCCCC(=O)OC(C)C [Crodamol IPP (isopropyl palmitate), isopropyl palmitate] | 215 mg/g | –
CC(C)CCC[C@@H](C)[C@H]1CC[C@H]2[C@@H]3CC=C4C[C@@H](O)CC[C@]4(C)[C@H]3CC[C@]12C [Cholesterol] | – | water solubility [5]: ~0.01 µg/mL (≈ 0.0259 µM)
CCCCCCCC/C=C\CCCCCCCC(=O)O [Oleic acid] | 405 mg/g | –
